Four compounds from PMC7026418, “The kinase polypharmacology landscape of clinical PARP inhibitors” (Scientific Reports, 2020) can be followed below.

Like-named read-outs stand apart in the source and are kept apart here.

Targets include AURKB (Homo sapiens, UniProt Q96GD4); CAMK1D (Homo sapiens, UniProt Q8IU85); FGFR4 (Homo sapiens, UniProt P22455); PAK2 (Homo sapiens, UniProt Q13177).
Holding throughout (assay): biochemical
What all share (parameters): DiscoveRx KINOMEscan active site-directed competition binding; percent of control kinase bound to immobilised ligand

The target in another assay is T1, MST2 (Homo sapiens, UniProt Q13188).
T1 construct: gene STK3
T1 sequence (Q13188 1-491): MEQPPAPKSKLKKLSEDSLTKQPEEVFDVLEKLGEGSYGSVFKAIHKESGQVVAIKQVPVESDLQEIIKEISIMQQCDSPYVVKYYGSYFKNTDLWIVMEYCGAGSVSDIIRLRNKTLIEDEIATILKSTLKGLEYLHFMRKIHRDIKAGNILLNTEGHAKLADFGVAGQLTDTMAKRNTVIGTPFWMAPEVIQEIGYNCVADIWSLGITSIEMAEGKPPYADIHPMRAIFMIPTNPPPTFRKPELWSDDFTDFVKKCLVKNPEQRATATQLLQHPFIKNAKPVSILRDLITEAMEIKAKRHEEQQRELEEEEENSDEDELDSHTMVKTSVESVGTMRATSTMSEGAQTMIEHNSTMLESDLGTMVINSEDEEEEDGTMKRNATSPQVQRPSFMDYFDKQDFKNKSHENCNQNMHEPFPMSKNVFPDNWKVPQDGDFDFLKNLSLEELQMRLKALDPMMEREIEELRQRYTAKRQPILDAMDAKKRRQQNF

Assay [1] has as its target T2, RSK4(Kin.Dom.1-N-terminal) (Homo sapiens, UniProt Q9UK32).
T2 construct: gene RPS6KA6; Kin.Dom.1-N-terminal

A further assay deals with T3, TAOK3 (Homo sapiens, UniProt Q9H2K8).
T3 sequence (Q9H2K8 1-898): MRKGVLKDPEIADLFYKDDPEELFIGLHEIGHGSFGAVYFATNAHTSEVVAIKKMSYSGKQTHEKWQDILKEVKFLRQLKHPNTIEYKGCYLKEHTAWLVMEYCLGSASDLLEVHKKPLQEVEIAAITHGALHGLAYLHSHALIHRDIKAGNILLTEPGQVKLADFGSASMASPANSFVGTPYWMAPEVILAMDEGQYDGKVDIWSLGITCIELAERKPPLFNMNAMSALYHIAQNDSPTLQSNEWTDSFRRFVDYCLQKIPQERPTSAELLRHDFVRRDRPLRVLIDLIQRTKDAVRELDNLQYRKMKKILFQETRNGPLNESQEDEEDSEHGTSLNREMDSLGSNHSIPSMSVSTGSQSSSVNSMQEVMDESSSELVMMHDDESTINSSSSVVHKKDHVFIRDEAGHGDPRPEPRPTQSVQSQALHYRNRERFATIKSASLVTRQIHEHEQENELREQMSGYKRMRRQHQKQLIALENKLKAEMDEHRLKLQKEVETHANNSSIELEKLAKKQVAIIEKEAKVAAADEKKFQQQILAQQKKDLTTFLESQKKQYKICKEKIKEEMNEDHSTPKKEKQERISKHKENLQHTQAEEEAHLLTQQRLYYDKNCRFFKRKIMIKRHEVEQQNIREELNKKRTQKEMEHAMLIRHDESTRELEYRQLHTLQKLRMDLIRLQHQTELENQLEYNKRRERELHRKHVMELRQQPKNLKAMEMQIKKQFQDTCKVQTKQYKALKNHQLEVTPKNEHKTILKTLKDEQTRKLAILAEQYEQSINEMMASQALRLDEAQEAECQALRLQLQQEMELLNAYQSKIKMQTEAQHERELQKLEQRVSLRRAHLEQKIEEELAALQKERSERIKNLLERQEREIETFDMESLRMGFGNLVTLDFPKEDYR

In a further assay the target is T4, ZAP70 (Homo sapiens, UniProt P43403).
T4 sequence (P43403 1-619): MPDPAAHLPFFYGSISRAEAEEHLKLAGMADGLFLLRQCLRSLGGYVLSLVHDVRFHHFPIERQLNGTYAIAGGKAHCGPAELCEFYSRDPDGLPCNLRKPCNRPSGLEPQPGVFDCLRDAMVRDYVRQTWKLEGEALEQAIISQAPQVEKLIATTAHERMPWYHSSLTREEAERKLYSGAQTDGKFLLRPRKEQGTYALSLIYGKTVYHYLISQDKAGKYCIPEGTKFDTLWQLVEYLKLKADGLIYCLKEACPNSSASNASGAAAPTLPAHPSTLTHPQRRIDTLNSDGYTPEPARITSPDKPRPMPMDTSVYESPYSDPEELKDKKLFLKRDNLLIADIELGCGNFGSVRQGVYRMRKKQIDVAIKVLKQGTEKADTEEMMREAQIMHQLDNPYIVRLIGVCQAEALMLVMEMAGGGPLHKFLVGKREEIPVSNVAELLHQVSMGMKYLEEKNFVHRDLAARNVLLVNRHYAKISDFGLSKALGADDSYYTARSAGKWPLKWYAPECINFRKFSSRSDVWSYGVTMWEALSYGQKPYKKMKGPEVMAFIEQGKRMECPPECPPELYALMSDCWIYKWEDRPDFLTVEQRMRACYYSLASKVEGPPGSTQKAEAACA

The target in assay [2] is T5, JAK1(JH2domain-pseudokinase) (Homo sapiens, UniProt P23458).
T5 construct: JH2domain-pseudokinase
T5 sequence (P23458 whole entry): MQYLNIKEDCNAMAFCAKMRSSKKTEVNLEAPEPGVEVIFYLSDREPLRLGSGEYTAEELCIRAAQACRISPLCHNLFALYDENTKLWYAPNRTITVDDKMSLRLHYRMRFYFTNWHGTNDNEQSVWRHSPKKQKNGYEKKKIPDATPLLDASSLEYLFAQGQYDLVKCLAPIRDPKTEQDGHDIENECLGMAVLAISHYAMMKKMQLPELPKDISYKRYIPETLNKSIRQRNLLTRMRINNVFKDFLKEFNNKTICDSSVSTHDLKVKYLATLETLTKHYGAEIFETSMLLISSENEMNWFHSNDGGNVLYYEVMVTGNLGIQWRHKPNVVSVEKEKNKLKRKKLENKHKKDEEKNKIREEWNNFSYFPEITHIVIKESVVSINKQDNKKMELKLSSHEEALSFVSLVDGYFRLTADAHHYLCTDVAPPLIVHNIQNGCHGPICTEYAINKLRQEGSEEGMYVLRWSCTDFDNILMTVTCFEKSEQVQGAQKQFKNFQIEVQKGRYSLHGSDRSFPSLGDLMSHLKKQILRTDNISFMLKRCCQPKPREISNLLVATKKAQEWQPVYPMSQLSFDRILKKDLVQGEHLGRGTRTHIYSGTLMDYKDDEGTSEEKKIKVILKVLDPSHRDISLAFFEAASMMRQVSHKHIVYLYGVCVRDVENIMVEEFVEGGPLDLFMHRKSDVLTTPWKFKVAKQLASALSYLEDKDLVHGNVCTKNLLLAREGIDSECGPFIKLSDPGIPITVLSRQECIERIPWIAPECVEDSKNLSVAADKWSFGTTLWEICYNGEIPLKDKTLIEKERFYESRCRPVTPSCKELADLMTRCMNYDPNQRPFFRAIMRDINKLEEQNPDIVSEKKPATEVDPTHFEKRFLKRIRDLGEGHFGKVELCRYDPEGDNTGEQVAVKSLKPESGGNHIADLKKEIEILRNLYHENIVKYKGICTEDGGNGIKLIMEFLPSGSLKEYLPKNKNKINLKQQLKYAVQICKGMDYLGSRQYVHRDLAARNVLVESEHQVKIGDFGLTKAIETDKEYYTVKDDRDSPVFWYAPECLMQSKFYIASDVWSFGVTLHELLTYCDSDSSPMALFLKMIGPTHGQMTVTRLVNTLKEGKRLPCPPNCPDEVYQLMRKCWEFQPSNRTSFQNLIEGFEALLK

[3] abbreviates: read-out: Niraparib (MK-4827) / %Ctrl @ 10000nM.
[4] abbreviates: read-out: Talazoparib (BMN 673) / %Ctrl @ 10000nM.
Where [5] appears, read: read-out: Rucaparib / %Ctrl @ 10000nM, binding competition, % of control.
Where [6] appears, read: read-out: Olaparib / %Ctrl @ 10000nM.

T2 sequence (Q9UK32 whole entry): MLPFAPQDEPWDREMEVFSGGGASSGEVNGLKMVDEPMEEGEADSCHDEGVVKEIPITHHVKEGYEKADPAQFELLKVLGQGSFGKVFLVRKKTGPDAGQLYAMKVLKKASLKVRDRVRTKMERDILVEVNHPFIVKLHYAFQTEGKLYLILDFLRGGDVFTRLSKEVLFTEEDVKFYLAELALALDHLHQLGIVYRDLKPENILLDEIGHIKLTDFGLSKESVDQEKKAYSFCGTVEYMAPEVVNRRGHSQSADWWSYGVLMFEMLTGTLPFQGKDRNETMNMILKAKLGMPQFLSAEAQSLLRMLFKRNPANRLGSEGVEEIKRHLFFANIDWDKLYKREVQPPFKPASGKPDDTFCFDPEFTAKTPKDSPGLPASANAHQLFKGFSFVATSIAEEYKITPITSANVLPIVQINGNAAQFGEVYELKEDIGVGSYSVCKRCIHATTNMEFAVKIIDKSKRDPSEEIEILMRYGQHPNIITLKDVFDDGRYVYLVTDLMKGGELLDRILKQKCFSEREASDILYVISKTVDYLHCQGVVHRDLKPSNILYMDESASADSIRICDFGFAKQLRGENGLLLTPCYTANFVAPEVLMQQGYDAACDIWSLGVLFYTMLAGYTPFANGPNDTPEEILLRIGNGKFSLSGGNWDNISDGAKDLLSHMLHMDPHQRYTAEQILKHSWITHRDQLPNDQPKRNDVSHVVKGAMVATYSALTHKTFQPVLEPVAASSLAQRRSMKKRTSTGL
PAK2, sequence (Q13177 whole entry): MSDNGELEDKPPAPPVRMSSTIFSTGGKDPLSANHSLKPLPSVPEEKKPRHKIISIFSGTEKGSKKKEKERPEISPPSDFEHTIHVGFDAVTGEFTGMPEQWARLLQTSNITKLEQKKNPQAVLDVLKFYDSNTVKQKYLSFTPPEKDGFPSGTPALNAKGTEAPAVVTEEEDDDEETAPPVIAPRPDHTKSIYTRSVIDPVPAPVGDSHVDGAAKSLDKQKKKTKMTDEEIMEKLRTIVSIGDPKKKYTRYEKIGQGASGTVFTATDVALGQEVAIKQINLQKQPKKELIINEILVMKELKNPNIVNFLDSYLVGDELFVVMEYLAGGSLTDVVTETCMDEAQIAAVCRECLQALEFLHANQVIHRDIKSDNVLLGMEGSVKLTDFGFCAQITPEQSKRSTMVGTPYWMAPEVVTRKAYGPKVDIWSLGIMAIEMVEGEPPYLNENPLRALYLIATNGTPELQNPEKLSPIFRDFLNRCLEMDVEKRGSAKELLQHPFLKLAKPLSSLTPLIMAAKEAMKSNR
AURKB, sequence (Q96GD4 whole entry): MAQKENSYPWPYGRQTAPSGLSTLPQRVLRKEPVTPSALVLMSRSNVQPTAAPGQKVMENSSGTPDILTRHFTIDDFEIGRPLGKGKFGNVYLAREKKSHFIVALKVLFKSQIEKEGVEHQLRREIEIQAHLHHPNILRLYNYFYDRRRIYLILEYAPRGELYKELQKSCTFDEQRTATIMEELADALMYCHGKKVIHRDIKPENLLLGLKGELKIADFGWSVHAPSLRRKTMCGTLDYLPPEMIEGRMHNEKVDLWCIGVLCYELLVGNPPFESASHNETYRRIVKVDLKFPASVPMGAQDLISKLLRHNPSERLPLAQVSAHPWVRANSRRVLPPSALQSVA
FGFR4, sequence (P22455 whole entry): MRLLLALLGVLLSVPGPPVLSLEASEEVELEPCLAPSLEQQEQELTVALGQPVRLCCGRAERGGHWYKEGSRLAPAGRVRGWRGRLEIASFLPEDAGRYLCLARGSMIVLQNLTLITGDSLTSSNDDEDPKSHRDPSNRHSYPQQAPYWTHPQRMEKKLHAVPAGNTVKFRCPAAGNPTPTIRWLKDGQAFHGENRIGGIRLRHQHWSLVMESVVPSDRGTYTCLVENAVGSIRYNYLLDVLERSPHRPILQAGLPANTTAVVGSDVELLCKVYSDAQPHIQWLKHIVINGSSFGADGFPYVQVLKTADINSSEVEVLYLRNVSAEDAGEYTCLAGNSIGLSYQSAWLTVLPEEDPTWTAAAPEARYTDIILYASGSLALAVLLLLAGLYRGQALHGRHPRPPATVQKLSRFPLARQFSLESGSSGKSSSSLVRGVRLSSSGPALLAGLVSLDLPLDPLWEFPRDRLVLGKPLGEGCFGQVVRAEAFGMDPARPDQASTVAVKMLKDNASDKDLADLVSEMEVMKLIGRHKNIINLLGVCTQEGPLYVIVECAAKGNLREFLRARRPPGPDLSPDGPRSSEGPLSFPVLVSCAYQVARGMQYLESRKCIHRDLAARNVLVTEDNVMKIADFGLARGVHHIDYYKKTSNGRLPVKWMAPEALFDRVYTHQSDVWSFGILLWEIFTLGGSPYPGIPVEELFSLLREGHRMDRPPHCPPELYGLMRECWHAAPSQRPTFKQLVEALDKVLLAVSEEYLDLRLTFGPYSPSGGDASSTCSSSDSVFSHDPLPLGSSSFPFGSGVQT
CAMK1D, sequence (Q8IU85 whole entry): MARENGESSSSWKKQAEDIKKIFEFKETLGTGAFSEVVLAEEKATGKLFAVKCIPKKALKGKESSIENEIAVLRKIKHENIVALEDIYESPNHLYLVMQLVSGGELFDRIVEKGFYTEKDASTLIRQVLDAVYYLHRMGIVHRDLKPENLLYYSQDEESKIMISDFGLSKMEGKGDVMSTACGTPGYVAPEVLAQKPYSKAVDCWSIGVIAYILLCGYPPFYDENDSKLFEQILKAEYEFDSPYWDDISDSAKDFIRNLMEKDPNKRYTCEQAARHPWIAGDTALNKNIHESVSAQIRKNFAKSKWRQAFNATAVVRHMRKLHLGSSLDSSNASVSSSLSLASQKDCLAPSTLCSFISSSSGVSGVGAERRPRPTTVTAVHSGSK

For the compound `NC(=O)c1cccc2cn(-c3ccc([C@@H]4CCCNC4)cc3)nc12` [Niraparib], the percent of control binding at 10 µM at AURKB (setting [3]) turned out to be 8.1%; at CAMK1D (setting [3]), 84%; at FGFR4 (setting [3]), 94%; on MST2 (setting [3]), 100%; on PAK2 (setting [3]), 45%; in assay [1] (setting [3]), 100%. The percent of control binding at 10 µM at TAOK3 (setting [3]) and on ZAP70 (setting [3]) was 100% in each case.
Turning to `Cn1ncnc1[C@H]1c2n[nH]c(=O)c3cc(F)cc(c23)N[C@@H]1c1ccc(F)cc1` [Talazoparib], the percent of control binding at 10 µM was 73% at AURKB (setting [4]); 91% on CAMK1D (setting [4]); 100% at FGFR4 (setting [4]); 73% in assay [2] (setting [4]); 100% at MST2 (setting [4]); 84% on PAK2 (setting [4]). Further, the percent of control binding at 10 µM amounted to 99% in assay [1] (setting [4]), 100% at TAOK3 (setting [4]) and 100% on ZAP70 (setting [4]).
As to `CNCc1ccc(-c2[nH]c3cc(F)cc4c3c2CCNC4=O)cc1` [Rucaparib], the percent of control binding at 10 µM on AURKB (setting [5]) came out at 100%; on CAMK1D (setting [5]), 86%; on FGFR4 (setting [5]), 91%; in [2] (setting [5]), 0.8%; on MST2 (setting [5]) it was 76%; at PAK2 (setting [5]) it was 31%. In addition, the results for the percent of control binding at 10 µM (in assay [1] (setting [5]); on TAOK3 (setting [5]); on ZAP70 (setting [5])) were 63%, 91% and 80%, respectively.
For the compound `O=C(c1cc(Cc2n[nH]c(=O)c3ccccc23)ccc1F)N1CCN(C(=O)C2CC2)CC1` [Olaparib], the percent of control binding at 10 µM on AURKB (setting [6]) turned out to be 100%; at CAMK1D (setting [6]) it was 94%; on FGFR4 (setting [6]), 82%; in assay [2] (setting [6]) it was 91%; on MST2 (setting [6]), 96%; on PAK2 (setting [6]) it was 92%. Further, the percent of control binding at 10 µM in assay [1] (setting [6]) worked out at 76%; on TAOK3 (setting [6]) it was 94%; at ZAP70 (setting [6]) it was 93%.
